Data published in US20180030091A1, “COLLAGEN-BINDING SYNTHETIC PEPTIDOGLYCANS FOR USE IN VASCULAR INTERVENTION” (Purdue Research Foundation, priority 2010, published 2018).
pKd: −log10 of the molar value. “Also recorded” adds a separate entry of the source. Where no end group is shown, it is not given here.

What was measured:
[1] = system: Human platelets on Type I fibrillar collagen; assay: Inhibition of platelet activation on fibrillar collagen after 24 hour rinse (PF4, NAP2); assay type: cell-based; settings: unbound peptidoglycan rinsed over 24 hours; PF-4 and Nap-2 release
Procedure: Type I fibrillar collagen from Chronolog was diluted in isotonic glucose to a concentration of 50 μg/mL. 50 μL of collagen solution was added to each well of a high bind 96-well plate. The plate was incubated overnight at 4° C., and then rinsed 3× with 1×PBS. For microplate assays, peptidoglycan was diluted in 1×PBS at concentrations between 0.0001 μM to 100 μM and 50 μL solution was added to the collagen coated wells. DS, peptide, or 1×PBS were also added to collagen coated wells as controls. Treatments were incubated at 37° C. with shaking at 200 rpm for 15 min. Wells were then rinsed of unbound treatment by removing the treatment solution, adding PBS, and shaking the wells for 24 hours. During the 24 hours, PBS solution was changed 3 times.
Human whole blood was collected from healthy volunteers by venipuncture. The first 5 mL of blood was discarded and approximately 20 mL was then collected into citrated glass vacutainers (BD Bioscience). Blood was centrifuged in the glass tube for 20 min at 200 g at 25° C. The top layer of the centrifuged blood, the platelet rich plasma (PRP), was used for platelet experiments.
PRP (50 μL/well) was added to the microplate for 1 hour at room temperature without shaking. After 1 hour of incubation, 45 μL of PRP was removed from each well and added to a microcentrifuge tube containing […] ETP (107 mM EDTA, 12 mM theophylline, and 2.8 mM prostaglandin E1) to inhibit further platelet activation. These tubes were spun at 4° C. for 30 min at 2000 g to pellet the platelets. The supernatant (platelet serum) was collected for ELISA studies to test for the presence of platelet activation markers PF-4 and NAP2. Sandwich ELISAs were utilized in order to detect each protein. The components for both sandwich ELISAs were purchased from R&D Systems and the provided protocols were followed. Platelet serum was diluted 10,000 times in 1% BSA in 1×PBS for values to fall within a linear range.
Platelet activation was measured through release of platelet factor 4 (PF4) and β-thromboglobulin (NAP2). […] Since the high SILY/DS ratio is expected to provide higher binding affinity to the collagen surface due to multiple interactions, peptidoglycans with the higher SILY/DS ratios were prepared.
The number of peptides per DS molecule was further increased to 18 to create the peptidoglycan DS-SILY18, and the concentration of molecule needed to inhibit platelet activation was tested. […] Within solubility limits, the number of peptides can be increased to achieve maximal platelet inhibition as well as to reduce diffusion over time, where a higher level of peptidoglycans on the denuded vessel wall is sustained.

[2] = system: Whole blood on fibrillar collagen; assay: Inhibition of whole blood binding to collagen under flow; assay type: cell-based; settings: 50 μM for 15 min; 5.6 mL/hr, shear rate 1000 s^−1, 5 min of flow
Procedure: Flow kits were obtained from Ibidi (Martinsried, Germany). Each channel was coated with fibrillar collagen as described for static microplate studies. Excess collagen was removed from the flow channel by extensive rinsing with 1×PBS through the channel. DS-SILY18 was incubated in the channel at a concentration of 50 μM for 15 min at 37° C., and unbound peptidoglycan was rinsed with 1×PBS. Control channels consisted of collagen not treated with peptidoglycan.
Whole blood was pushed through the flow channels by a syringe pump at a flow rate of 5.6 mL/hr, corresponding to a physiologically relevant shear rate of 1000 s^−1 (Badimon L, Badimon J J, Turitto V T, Vallabhajosula S, Fuster V. Platelet thrombus formation on collagen type I—a model of deep vessel injury—influence of blood rheology, von Willebrand Factor, and blood-coagulation. Circulation 1988; 78(6):1431-42). After 5 min of flow, 1×PBS pH 7.4 was pushed through at the same flow rate for 10 min to wash unbound cells. Brightfield images (n=3) were taken of each flow channel with a 10× objective. Images were thresholded and quantified for cellular coverage using ImageJ (NIH, Bethesda, Md.) and MatLab (Mathworks, Natick, Mass.) respectively. Control channels were assumed to have complete cellular coverage.

Fibrillar collagen [3] = assay: Peptidoglycan diffusion from collagen surface; assay type: binding; settings: after 1 week of extensive rinsing at 37° C.; applied at 10 μM
Procedure: The peptidoglycan OS-SILY18-biotin was dissolved at 10 μM in 1×PBS pH 7.4 with 2% BSA and was incubated on fibrillar collagen coated plates prepared as described. The plate was incubated at 37° C. on an orbital shaker and was rinsed extensively with 1×PBS pH 7.4. At various time points up to 11 days, OS-SILY18-biotin was detected on the surface as described for the binding affinity studies. The curve of diffusion of peptidoglycan from the collagen surface was fitted using a hyperbolic decay.
The diffusion of the peptidoglycan DS-SILY18 from a collagen surface was measured by incubating at 37° C. and rinsing extensively in order to mimic blood flow in vivo. Peptidoglycan was incubated on fibrillar collagen surfaces and detected by the same methods for calculating binding affinities. […] It is estimated that complete endothelial cell regrowth occurs within 1 week of balloon injury, and thus this time frame is useful for preventing platelet binding until endothelial cells grow back and provide a permanent cover to the underlying collagen.

[4] = system: Human coronary artery endothelial cells (ECs); assay: Endothelial cell proliferation; assay type: cell-based; settings: highest concentration tested (final concentrations 35, 3.5, and 0.35 μM); 48 hours
Procedure: Human coronary artery endothelial cells (ECs) (Lonza, Walkersville, Md.) were seeded in 96-well plates at a cell density of 1.5×10^3 cells/well. Cells were allowed to adhere to the surface for 24 hours and adherent ECs were stained using cell tracker green (Invitrogen, Carlsbad, Calif.). Initial cell number was determined by measuring fluorescence of each well with 492 nm excitation and 517 nm emission.
DS-SILY18 was solubilized in water at a concentration of […] and diluted in water 10 fold for concentrations of 175, 17.5, and 1.75 μM. The DS-SILY solution was diluted 5 fold with cell media for final concentrations of […]. The control consisted of diluting water 5 fold with cell media. 100 μL of media with DS-SILY was added to each well and the cell number was determined 48 hours later by measuring fluorescence. The percent change in cell number in each well was calculated.

Fibrillar collagen [5] = assay: Binding affinity of biotin labeled peptidoglycan to fibrillar collagen; settings: biotin labeled peptidoglycans, fitted saturation binding curves
Procedure: Fibrillar collagen (Chronolog, Havertown, Pa.) was coated onto the surface of a 96-well high bind plate (Costar) at a concentration of 50 μg/mL diluted in isotonic glucose. Plates were covered and incubated overnight at 4° C. Unbound collagen was removed by rinsing 3 times with 1×PBS pH 7.4. Plates were then blocked with 1% BSA for 3 hours at room temperature. Peptidoglycan was dissolved at varying concentrations in 1×PBS pH 7.4 containing 1% BSA and were immediately added to the collagen surfaces, and allowed to incubate for 15 min at room temperature. Plates were then rinsed 3 times with 1×PBS pH 7.4 containing 1% BSA. Streptavidin-HRP solution (R&D Systems, Minneapolis, Minn.) was then added to the plates and incubated for 20 minutes at room temperature. […] The color evolving reaction was stopped with 50 μL 2N sulfuric acid and absorbance was measured at 450 nm using an M5 UV Vis Spectrophotometer (Molecular Devices). Plate imperfections (540 nm) were subtracted from absorbance values.
The binding affinities of biotin labeled peptidoglycans, labeled using protocols known in the art, DS-SILY4 and DS-SILY18 were calculated by fitting the saturation binding curves and calculating the inflection point. […]

Question: For “DS-SILY18: dermatan sulfate with 18 peptides of the sequence RRANAALKAGELYKSILYGC linked to the glycan (RRANAALKAGELYKSILYGC-NH2; also: 18 copies linked to dermatan sulfate)”, which “concentration at which maximal inhibition of platelet activation was achieved” value [1] is on record?
Answer: 10 µM

Question: What about the “blood cell binding to collagen under flow” value [2] of the same substance?
Answer: inhibition; also recorded: much less blood cell binding to collagen

Question: What about the “equivalent concentration remaining bound on collagen surface” value (Fibrillar collagen [3]) of the same substance?
Answer: approximately 10 nM

Question: And the “endothelial cell proliferation (percent change in cell number)” value [4]?
Answer: significant increase in cell proliferation

Question: And the pKd (Fibrillar collagen [5])?
Answer: 7.62
